Reference: US20110318298A1, “VIRAL INFECTION THERAPEUTIC DRUG CONTAINING POLYALKYLENEIMINE” (Nippon Shokubai Co., Ltd., priority 2008, published 2011)
In brackets after ≈: the same amount, converted by molar mass. Like-named read-outs stand apart in the source and are kept apart here.

How the values were obtained:
[1] = system: Vero cells
Procedure: (§1) A test for evaluation of the cytotoxicity of polyethyleneimine in each cell was carried out according to the following procedure.
(§2) The cell proliferation count was then measured by trypan blue staining.

[2] = system: MDCK cells; experiment: Cytotoxicity (CC50), cell count by trypan blue staining, MDCK cells; type: cell-based, dog
[3] = system: HSV-2; experiment: Comparison of SP-012 and acyclovir in HSV-2-infected mice (Example 9); conditions: for Number of death/total number: 0.2 mg per administration to the genital until seven days after infection, 15 days observation; for Number of HSV-2 positive mouse/total number: genital wash, first day to 12 days after infection
Procedure: Five to six-week-old female BALB/c mice were locally (genital) inoculated with HSV-2 in an amount of 20 μl (containing a reduced viral amount of 1×10^4 PFU per mouse in consideration of tracing also untreated control mice). […] From the first day to 12 days after the viral infection, the genital was washed with phosphate-buffered physiological saline every day, and the amount of virus therein was measured in each mouse. Also, for 15 days, the severity of the development of the disease and the case of death were recorded.

[4] = system: HSV-2; experiment: Inhibitory effect on HSV-2 virus invasion of the cells (Vero cells, 37° C.); type: cell-based, herpes simplex virus type 2; conditions: for Amount of virus invaded in 30 minutes / Amount of virus invaded in 3 hours: Vero cells, 37° C., control = 100%
From the text: Subsequently, the inhibitory effect of polyethyleneimine in the stage in which HSV-2 adsorbed to the host cells invades the cells was investigated.

[5] = system: HSV-2; experiment: Anti-viral activity on HSV-2, plaque assaying in Vero cells; conditions: Human alphaherpesvirus 2, Vero
[6] = system: HSV-2; experiment: Inhibitory effect on HSV-2 virus adsorption to the cells (Vero cells, 4° C.); conditions: for Amount of virus adsorbed to host cells: Vero cells, 4° C. one hour, control = 100%
[7] = in vitro; conditions: African green monkey
Procedure: as §1, §2

## polyethyleneimine [SP-018]
[1]
  Cytotoxicity (CC50): 0.057 μl/ml
[2]
  Cytotoxicity (CC50): 0.064 μl/ml

## polyethyleneimine [SP-200]
[1]
  Cytotoxicity (CC50): 0.0045 µg/mL

## polyethyleneimine [SP-012]
[2]
  Cytotoxicity (CC50): 0.34 μl/ml

## polyethyleneimine [SP-006]
[1]
  Cytotoxicity (CC50): 1.1 μl/ml
[2]
  Cytotoxicity (CC50): 0.57 μl/ml

## polyethyleneimine [SP-003]
[1]
  Cytotoxicity (CC50): 0.071 μl/ml
[2]
  Cytotoxicity (CC50): 0.057 μl/ml

## polyethyleneimine [P-1000]
[1]
  Cytotoxicity (CC50): 0.0044 μl/ml

## Nc1nc2c(ncn2COCCO)c(=O)[nH]1 [Acyclovir, acyclovir]
[3]
  Number of death/total number: 0/10
[3]; listed as acyclovir
  Number of death/total number: No mice died
[3]; 0.2 mg per administration, 10 mice
  Development of the disease (genital inflammation): transient inflammation
[3]; 0.2 mg per administration
  Number of HSV-2 positive mouse/total number: 1/10
[3]; 0.2 mg per administration, listed as acyclovir
  Number of HSV-2 positive mouse/total number: the virus was detected in one out of 10 mice
[4]; 1 μg/ml
  Amount of virus invaded in 30 minutes: 99%
[4]; 10 μg/ml
  Amount of virus invaded in 30 minutes: 94%
[4]; 100 μg/ml
  Amount of virus invaded in 30 minutes: 87%
  Amount of virus invaded in 3 hours: 89%
[4]; 1000 μg/ml
  Amount of virus invaded in 30 minutes: 68%
  Amount of virus invaded in 3 hours: Toxic
[4]; 10000 μg/ml
  Amount of virus invaded in 30 minutes: Toxic
  Amount of virus invaded in 3 hours: Toxic
[4]; over the tested concentrations
  Inhibition of viral invasion, overall finding: did not inhibit HSV-2 virus invasion of the cells
[5]; read-out: Anti-viral activity (IC50) A
  IC50: 0.91 µg/mL (≈ 4.04 µM)
[5]; read-out: Anti-viral activity (IC50) B
  IC50: 0.92 µg/mL (≈ 4.09 µM)
[6]; 100 μg/ml
  Amount of virus adsorbed to host cells: 76%
[6]; 1000 μg/ml
  Amount of virus adsorbed to host cells: Toxic
[6]; 10000 μg/ml
  Amount of virus adsorbed to host cells: Toxic
[6]; over the tested concentrations
  Inhibition of viral adsorption, overall finding: almost no dose-dependent adsorption-inhibitory effect
[7]
  CC50 at 72 h: 890 µg/mL (≈ 3950 µM)
